What was measured:
HCT-116 cells = assay: Cell viability (CellTiter-Glo), Experimental Example 4: dependence on olaparib concentration; assay type: cell-based; settings: nCas9 D10A RNP or siRNA co-treatment, Non-treated (label Olaparib) = PARP inhibitor only
Protocol: (§1) To transfect RNPs, cells were transfected with 665 ng of the Cas protein of each Embodiment and 95 ng of the sgRNA of each Embodiment using a Lipofectamine CRISPRMAX Cas9 Transfection Reagent (Invitrogen, #CMAX00015), and then cultured for 3 days. When treated together with a PARP inhibitor, the PARP inhibitor was treated according to Experimental Example 1.6, and the RNPs were treated one day thereafter.
(§2) To compare cell death effects depending on the concentration of a PARP inhibitor administered, the following experiment was performed. Specifically, Hela cells and HCT-116 cells cultured according to Experimental Example 1.1 were treated with a PARP inhibitor (olaparib) and a CRISPR/nCas composition for cell death having the compositions shown in the following table.
(§3) For each labeled material, experiments were conducted while varying the concentration of olaparib.
(§4) Here, in the case of siRNA, an siRNA having the sequence […] (SEQ ID NO: 40) was used, and 20 pmole thereof was delivered to the cells according to Experimental Example 1.7. After the experiment, cell viability was measured according to Experimental Example 1.8.

HeLa cells = assay: as above; assay type: cell-based; settings: nCas9 D10A RNP or siRNA co-treatment, Non-treated (label Olaparib) = PARP inhibitor only
Protocol: as §1, §2, §3, §4

HCT-116 tumors = assay: Tumor growth inhibition experiment in HCT-116 tumor xenograft mouse model; assay type: in vivo; settings: for Volume of Tumor (mm^3, Average, n = 4): HCT-116 xenograft, BALB/c nude mice, intratumoral injection every two days, eight injections, olaparib 28.5 μg
Protocol: For the delivery of RNP, lipid nanoparticles (LNPs) were prepared using an ethanol dilution method. All lipids (the molar ratio of C12-200/DOPE/cholesterol/DMG-PEG/DOTAP in the LNPs was fixed at 35/16/46.5/2.5/11.11) were dissolved in ethanol. RNPs (with a molar ratio of sgRNA to Cas9 protein of 1:1) were dissolved in PBS (pH 7.4). The two solutions were rapidly mixed by pipetting at a PBS-to-ethanol ratio of 3:1 (v/v) and a total lipid-to-sgRNA ratio of 20:1 (w/w), followed by incubation at room temperature for 15 minutes. For in vivo experiments, the RNP-loaded LNP formulation was purified by dialysis against PBS for 2 hours using a dialysis kit (Pur-A-Lyzer Midi Dialysis Kits, MWCO 3.5 kDa) and then concentrated using Amicon Ultra-15 centrifugal filters (MWCO 50 kDa), followed by intratumoral injection (50 μg of sgRNA-loaded LNP per injection). The above C12-200 was purchased from Cayman Chemical. The above DOPE, DOTAP, and DMG-PEG (MW 2000) were purchased from Avanti Polar Lipids. The above Cholesterol, the Pur-A-Lyzer Midi Dialysis Kit (MWCO, 3.5 kDa), and the Amicon Ultra-15 centrifugal filters (MWCO, 50 kDa) were purchased from Sigma. All chemicals were used without further purification.
Female BALB/c nude mice (5 weeks old) were purchased from Orient Bio and used for all animal experiments. The mice were handled in accordance with the guidelines of the Institutional Animal Care and Use Committee of Ulsan National Institute of Science and Technology ([…]-23-09). In the case of the xenograft model, 5×10^6 HCT116 cells stably expressing Cas9WT were suspended in 60 μL of PBS (pH 7.4) and mixed with 60 μL of Matrigel (BD Bioscience), followed by subcutaneous injection into the flank of each mouse. Tumor volume and body weight were measured every two days. Tumor volume was calculated using the following formula.
In the above formula, V represents the volume, a represents the length of the long axis, and b represents the length of the short axis.
When the tumor volume reached approximately 80 mm^3, the mice were randomly divided into multiple groups for experimentation.
To evaluate the antitumor efficacy of the administered materials in each group, mice bearing tumors established according to Experimental Example 1.11 were anesthetized with 1.5% isoflurane, and the administered material (PBS or LNP) was intratumorally injected every two days. A total of eight injections were performed over a period of 14 days, and the mice were sacrificed on day 25.
The tumor growth inhibition rate was calculated using the following formula.
Here, VDay0,treatment and VDay24,treatment represent the tumor volumes of the treatment group on day 0 and day 24, respectively, and VDay0,control and VDay24,control represent the tumor volumes of the control group administered with PBS on day 0 and day 24, respectively.
The tumor xenograft mouse model prepared according to Experimental Example 1.10 was randomly divided into four groups. Then, a PARP inhibitor and a CRISPR/nCas composition for cell death were administered according to Experimental Example 1.11 to confirm tumor growth inhibition effects. Specifically, 28.5 μg of olaparib diluted in PBS and the CRISPR/nCas composition for cell death were administered.

[1] = olaparib 10 μM, listed as olaparib

O=C(c1cc(Cc2n[nH]c(=O)c3ccccc23)ccc1F)N1CCN(C(=O)C2CC2)CC1 [Olaparib, olaparib]
Relative cell viability (average, n = 3) (HCT-116 cells; olaparib 0.0001 μM): 1.0000
Relative cell viability (average, n = 3) (HCT-116 cells; olaparib 0.001 μM): 0.9939
Relative cell viability (average, n = 3) (HCT-116 cells; olaparib 0.01 μM): 0.9743
Relative cell viability (average, n = 3) (HCT-116 cells; olaparib 0.1 μM): 1.0072
Relative cell viability (average, n = 3) (HCT-116 cells; olaparib 1 μM): 1.0307
Relative cell viability (average, n = 3) (HCT-116 cells; olaparib 10 μM): 0.7979
Relative cell viability (average, n = 3) (HCT-116 cells; [1]): exhibits cytotoxicity
Relative cell viability (average, n = 3) (HeLa cells; olaparib 0.0001 μM): 1.0000
Relative cell viability (average, n = 3) (HeLa cells; olaparib 0.001 μM): 0.9810
Relative cell viability (average, n = 3) (HeLa cells; olaparib 0.01 μM): 0.9959
Relative cell viability (average, n = 3) (HeLa cells; olaparib 0.1 μM): 0.9391
Relative cell viability (average, n = 3) (HeLa cells; olaparib 1 μM): 0.9279
Relative cell viability (average, n = 3) (HeLa cells; olaparib 10 μM): 0.1192
Relative cell viability (average, n = 3) (HeLa cells; [1]): exhibits cytotoxicity
Volume of Tumor (mm^3, Average, n = 4) (HCT-116 tumors; Day 0): 82.1 mm^3
Volume of Tumor (mm^3, Average, n = 4) (HCT-116 tumors; Day 2): 117.0 mm^3
Volume of Tumor (mm^3, Average, n = 4) (HCT-116 tumors; Day 4): 172.6 mm^3
Volume of Tumor (mm^3, Average, n = 4) (HCT-116 tumors; Day 6): 241.8 mm^3
Volume of Tumor (mm^3, Average, n = 4) (HCT-116 tumors; Day 8): 320.3 mm^3
Volume of Tumor (mm^3, Average, n = 4) (HCT-116 tumors; Day 10): 371.2 mm^3
Volume of Tumor (mm^3, Average, n = 4) (HCT-116 tumors; Day 12): 476.0 mm^3
Volume of Tumor (mm^3, Average, n = 4) (HCT-116 tumors; Day 14): 542.7 mm^3
Volume of Tumor (mm^3, Average, n = 4) (HCT-116 tumors; Day 16): 610.7 mm^3
Volume of Tumor (mm^3, Average, n = 4) (HCT-116 tumors; Day 18): 702.9 mm^3
Volume of Tumor (mm^3, Average, n = 4) (HCT-116 tumors; Day 20): 847.8 mm^3
Volume of Tumor (mm^3, Average, n = 4) (HCT-116 tumors; Day 22): 907.4 mm^3
Volume of Tumor (mm^3, Average, n = 4) (HCT-116 tumors; Day 24): 996.7 mm^3
Tumor Inhibition Rate (%) (HCT-116 tumors; calculated from tumor volumes on day 0 and day 24 versus PBS control, HCT-116 xenograft mice): 8.10%
